# Reference: EPA's ToxRefDB 2
# Experiments:
# mouse [1] = settings: Subchronic oral toxicity in rodents, b6c3f1, Water, dose end: 13 week
# rabbit [2] = settings: Prenatal developmental toxicity study, new zealand white, Inhalation, Whole-Body, dose end: 18 GD
# rabbit [3] = settings: Prenatal developmental toxicity study; dutch; Inhalation; Whole-Body; dose end: 18 GD; group: developmental; developmental / developmental malformation / bone / incomplete ossification + developmental / developmental malformation / bone / …
# rat [4] = settings: Carcinogenicity, fischer, Oral, Gavage/Intubation, dose end: 2 year, group: systemic
# rabbit [5] = settings: Subchronic inhalation toxicity, new zealand white, Whole-Body, dose end: 13 week, group: systemic
# rat [6] = settings: Prenatal developmental toxicity study, wistar, Inhalation, Whole-Body, dose end: 15 GD
# rat [7] = settings: Subchronic oral toxicity in rodents, fischer, Water, dose end: 13 week
# rat [8] = settings: Prenatal developmental toxicity study, wistar, Inhalation, Whole-Body, dose end: 19 GD
# mouse [9] = settings: Carcinogenicity, b6c3f1, Oral, Gavage/Intubation, dose end: 2 year, group: systemic
# rat [10] = settings: Subchronic inhalation toxicity, sprague dawley, Whole-Body, dose end: 13 week, group: systemic
# rat [11] = settings: Prenatal developmental toxicity study, wistar, Inhalation, Whole-Body, dose end: 19 GD; remark: listed apart in the source
# [12] = group: maternal, reproductive / reproductive performance / estrous cycle / length
# [13] = group: systemic, systemic / in life observation / body weight / body weight gain + systemic / organ weight / testes / absolute + systemic / pathology gross…
# [14] = group: developmental, developmental / developmental malformation / bone / supernumerary + developmental / developmental malformation / heart / [other] + …
# [15] = group: maternal, reproductive / reproductive performance / resorptions / resorptions + systemic / in life observation / body weight / body weight gain + …
# [16] = group: maternal, reproductive / reproductive performance / resorptions / resorptions + systemic / in life observation / food consumption / food consumption…
# [17] = systemic / in life observation / body weight / body weight
# [18] = systemic / in life observation / body weight / body weight + systemic / pathology gross / adrenal gland / enlarged
# [19] = systemic / clinical chemistry / cholesterol / cholesterol
# [20] = systemic / clinical chemistry / cholesterol / cholesterol + systemic / hematology / erythrocyte (rbc) count differential / erythrocyte (rbc…
# [21] = group: developmental, systemic / in life observation / body weight / litter weight
# [22] = group: developmental, systemic / in life observation / body weight / litter weight + developmental / developmental malformation / bone / incomplete ossification…
# [23] = group: maternal, reproductive / reproductive performance / preimplantation loss / preimplantation loss + reproductive / offspring survival early / live …
# [24] = group: maternal, reproductive / reproductive performance / estrous cycle / abnormal + reproductive / reproductive performance / estrous cycle / length
# [25] = group: systemic, systemic / clinical chemistry / alkaline phosphatase (alp/alk) / alkaline phosphatase (alp/alk)
# [26] = group: systemic, systemic / in life observation / body weight / body weight + systemic / in life observation / body weight / body weight gain + systemic / …
# [27] = group: developmental, developmental / developmental malformation / bone / incomplete ossification + developmental / developmental malformation / bone / knobby + …
# [28] = group: maternal, reproductive / reproductive performance / resorptions / resorptions
# [29] = group: maternal, reproductive / reproductive performance / resorptions / resorptions + systemic / in life observation / body weight / body weight + systemic…
# [30] = systemic / in life observation / mortality / mortality + systemic / pathology gross / stomach / ulcer + systemic / pathology gross / testes…
# [31] = systemic / organ weight / spleen / absolute + systemic / organ weight / spleen / relative to body weight
# [32] = systemic / organ weight / spleen / absolute + systemic / organ weight / spleen / relative to body weight + systemic / clinical chemistry / …
# [33] = group: maternal, systemic / organ weight / spleen / relative to body weight
compound,measurement,setting,value
CCOCCO [2-Ethoxyethanol],LEL,mouse [1]; [12],722 mg/kg/day
same,LOAEL,mouse [1]; [12],> 11200 mg/kg/day
same,NEL,mouse [1]; [12],< 722 mg/kg/day
same,NOAEL,mouse [1]; [12],≥ 11200 mg/kg/day
same,LOAEL,mouse [1]; [13],5120 mg/kg/day
same,NOAEL,mouse [1]; [13],2000 mg/kg/day
same,LEL,"mouse [1]; group: systemic, systemic / pathology microscopic / adrenal gland / hypertrophy",2720 mg/kg/day
same,NEL,"mouse [1]; group: systemic, systemic / pathology microscopic / adrenal gland / hypertrophy + systemic / in life observation / body weight / body weight gain + systemic…",1300 mg/kg/day
same,LEL,rabbit [2]; [14],160 ppm
same,LOAEL,rabbit [2]; [14],> 617 ppm
same,NEL,rabbit [2]; [14],< 160 ppm
same,NOAEL,rabbit [2]; [14],≥ 617 ppm
same,LOAEL,rabbit [2]; [15],> 617 ppm
same,NOAEL,rabbit [2]; [15],≥ 617 ppm
same,LEL,rabbit [2]; [16],160 ppm
same,NEL,rabbit [2]; [16],< 160 ppm
same,LEL,rabbit [3],175 ppm
same,LOAEL,rabbit [3],> 175 ppm
same,NEL,rabbit [3],50 ppm
same,NOAEL,rabbit [3],≥ 175 ppm
same,LOAEL,rat [4]; [17],500 mg/kg/day
same,NOAEL,rat [4]; [17],< 500 mg/kg/day
same,LEL,rat [4]; [18],500 mg/kg/day
same,NEL,rat [4]; [18],< 500 mg/kg/day
same,LEL,rabbit [5]; [19],25 ppm
same,NEL,rabbit [5]; [19],< 25 ppm
same,LOAEL,rabbit [5]; [20],> 400 ppm
same,NOAEL,rabbit [5]; [20],≥ 400 ppm
same,LEL,rat [6]; [21],10 ppm
same,NEL,rat [6]; [21],< 10 ppm
same,LOAEL,rat [6]; [22],> 250 ppm
same,NOAEL,rat [6]; [22],≥ 250 ppm
same,LEL,rat [6]; [23],10 ppm
same,LOAEL,rat [6]; [23],> 250 ppm
same,NEL,rat [6]; [23],< 10 ppm
same,NOAEL,rat [6]; [23],≥ 250 ppm
same,LEL,rat [7]; [24],804 mg/kg/day
same,LOAEL,rat [7]; [24],> 2060 mg/kg/day
same,NEL,rat [7]; [24],466 mg/kg/day
same,NOAEL,rat [7]; [24],≥ 2060 mg/kg/day
same,LEL,rat [7]; [25],109 mg/kg/day
same,NEL,rat [7]; [25],< 109 mg/kg/day
same,LOAEL,rat [7]; [26],792 mg/kg/day
same,NOAEL,rat [7]; [26],400 mg/kg/day
same,LEL,rat [8]; [27],150 ppm
same,LOAEL,rat [8]; [27],> 649 ppm
same,NEL,rat [8]; [27],< 150 ppm
same,NOAEL,rat [8]; [27],≥ 649 ppm
same,LEL,rat [8]; [28],150 ppm
same,NEL,rat [8]; [28],< 150 ppm
same,LOAEL,rat [8]; [29],> 649 ppm
same,NOAEL,rat [8]; [29],≥ 649 ppm
same,LOAEL,mouse [9]; [30],> 2000 mg/kg/day
same,NEL,mouse [9]; [30],500 mg/kg/day
same,NOAEL,mouse [9]; [30],≥ 2000 mg/kg/day
same,LEL,mouse [9]; systemic / pathology gross / testes / reduced size,1000 mg/kg/day
same,LEL,rat [10]; [31],25 ppm
same,NEL,rat [10]; [31],< 25 ppm
same,LOAEL,rat [10]; [32],> 400 ppm
same,NOAEL,rat [10]; [32],≥ 400 ppm
same,LEL,rat [11]; [27],202 ppm
same,LOAEL,rat [11]; [27],> 767 ppm
same,NEL,rat [11]; [27],< 202 ppm
same,NOAEL,rat [11]; [27],≥ 767 ppm
same,LOAEL,rat [11]; [29],> 767 ppm
same,NOAEL,rat [11]; [29],≥ 767 ppm
same,LEL,rat [11]; [33],202 ppm
same,NEL,rat [11]; [33],< 202 ppm
